# Results as given in patent US20190365745A1, “USE OF CHRONIC TREATMENT WITH ATR INHIBITORS TO SENSITIZE CANCER CELLS TO PARP INHIBITORS” (Cornell University, priority 2018, published 2019).
# “Also recorded” adds a separate entry of the source.
# What was measured:
# Assay type in all cases: cell-based, Human
# U2OS cells [1] = assay: Cell cycle analysis (propidium iodide, flow cytometry); details: chronic 5 μM ATRi
# Protocol: Cells were harvested by standard trypsinization and fixed with 70% ethanol. After fixation, cells from each sample were resuspended in PBS, permeabilized using 0.1% Triton X-100 and treated with RNase A (0.8 mg/ml). Then cells were stained with propidium iodide and analyzed by flow cytometry using FACSAria Fusion (BD) or Accuri C6 cytometer (BD) to determine the fraction of cells in different stages of the cell cycle.
# U2OS cells [2] = assay: DNA damage in cells undergoing chronic ATR inhibition alone
# U2OS cells [3] = assay: Real time PCR of mRNA levels; details: normalized to GAPDH
# From the text: FIG. 9B is a bar graph showing the analysis of HR-mediated repair using the DR-GFP system. Relative fold change of GFP positive U2OS cells treated with CHK1i compared to DMSO treatment control. (Error bars=SEM, N=4, ****P-value<0.0001; one sample-t-test was used for the statistical analysis). FIGS. 9C-9D show a histogram showing representative FACS data (FIG. 9C) and a bar graph showing quantitation of G1, S and G2/M population for cell cycle analysis of CHK1i treated cells (FIG. 9D) (Error bars=SD, N=3). FIG. 9E are bar graphs showing real time PCR analysis of total RNA extracted from U2OS cells treated with DMSO, ATRi (5 μM for 8 days) or CHK1i (0.2 μM for 5 days). Values were normalized to GAPDH mRNA levels. (Error bars=SD, N=3). FIG. 9F is a schematic diagram showing a proposed model of how E2F transcription is regulated through ATR-CHK1 signaling. […] FIG. 9H is a bar graph showing DR-GFP analysis of 293-T-REX-E2F6 cells after 8 days of treatment with DMSO or doxycycline. (Error bars=SEM, N=4). FIG. 9I is a histogram showing cell cycle analysis of 293-T-REX-E2F6 cells after 8 days of treatment with DMSO or doxycycline. FIG. 9J is a schematic diagram showing a model depicting multiple roles of ATR in the control of HR capacity.
# Cells cultured from 10 cm dish were collected and lysed in 1 ml of TRIzol (Invitrogen). Chloroform was added to the lysed sample to separate RNA. Separated RNA was precipitated by isopropyl alcohol, followed by two washes with 75% ethanol. 1 μg of extracted RNA from each sample was then reverse transcribed with Bio-Rad iScript cDNA synthesis kit. The samples (˜100 ng) were analyzed in a Roche 480 light cycler in a total of 15 μl containing SYBR green mix and primers. The values were calculated using “absolute quantification/2nd derivative max” in lightcycler 480 program and then normalized to the level of GAPDH.
# U2OS cells [4] = assay: Cycloheximide protein stability western blot; details: CHX 50 μg/ml with 5 μM ATRi vs CHX alone
# Protocol: Fresh media containing CHX or CHX/ATRi was added every 6 hours. The right panel is a bar graph generated by measuring the intensity of the BRCA1 band from three independent experiments. Two-tailed Student's t-test was used for the statistics (Error bars=SD, N=3, ****P-value<0.0001).
# (§1) Cells were harvested and lysed in modified radioimmunoprecipitation assay (RIPA) buffer (50 mM Tris-HCl pH 7.5, 150 mM NaCl, 1% tergitol, 0.25% sodium deoxycholate, 5 mM EDTA) supplemented with Complete EDTA-free protease inhibitor cocktail (Roche), 1 mM PMSF, 5 mM sodium fluoride, 10 mM β-glycerol-phosphate and 0.4 mM sodium orthovanadate. Whole cell lysates were cleared with 5 minute centrifugation at 13,000 rpm at 4° C. and mixed with 3×SDS sample buffer (bromophenol blue, stacking gel buffer, 50% glycerol, 3% SDS and 60 mM DTT). After being resolved on SDS-PAGE gels, proteins were then transferred onto polyvinylidene difluoride (PVDF) membranes and detected with designated antibodies.
# hTERT RPE-1 cells = assay: Immunoblotting of HR factor abundance; details: 5 μM ATRi, 8 days
# Protocol: (§2) FIGS. 14A-14B show WB analysis of hTERT RPE-1 (FIG. 14A) or HCT116 (colon cancer)(FIG. 14B) cells after 8 day chronic treatment with 5 μM ATRi or ATMi. […] FIGS. 14D-14E are bar graphs showing the analysis of HR-mediated repair using the DR-GFP system. Relative fold change of GFP positive hTERT RPE-1 (FIG. 14D) or HCT116 (FIG. 14E) cells over DMSO after ATRi treatment. (Error bars=SEM, N≥3, ****P-value<0.0001; one sample-t-test was used for the statistical analysis comparing 2 days versus 8 days of treatment).
# (§3) Human U2OS, HCT116, hTERT RPE-1, HEK293T, HeLa, U87, T98G, A2780, and human skin fibroblast cells (GM08398 and GM18366) were grown in DMEM media supplemented with 10% bovine calf serum, penicillin/streptomycin and non-essential amino acids. […]
# as §1, with “Whole cell lysates were cleared with 5 minute centrifugation at 13,000 rpm at 4° C. and mixed with 3×SDS sample buffer (bromophenol blue, stacking gel buffer, 50% glycerol, 3% SDS and 60 mM DTT).” left out
# [5] = tested on: HCT116 (colon cancer) and indicated cancer cell lines; assay: Immunoblotting of HR factor abundance in cancer cell lines; details: cancer cells; 5 μM ATRi, 8 days
# Protocol: as §2, §3
# as §1, with “Whole cell lysates were cleared with 5 minute centrifugation at 13,000 rpm at 4° C. and mixed with 3×SDS sample buffer (bromophenol blue, stacking gel buffer, 50% glycerol, 3% SDS and 60 mM DTT).” left out
# U2OS cancer cells = assay: Crystal violet staining survival assay; details: after 8 days of treatment, 2 or 8 days drug-free
# Protocol: First, cells were treated for 5 days with either DMSO or 5 μM ATR inhibitor. Next, 1×10^5 cells of each cell type were plated onto a 10 cm dish and further treated with DMSO, ATR inhibitor and/or PARP inhibitor for additional 3 days. Cells were either fixed or allowed to recover after additional 2 or 8 days in drug-free media.
# First, hTERT RPE-1, U2OS, HCT116, HeLa, A2780, or U87 cells were treated for 5 days with either DMSO or 5 μM ATR inhibitor. Next, 1×10^5 cells of each cell type were plated onto a 10 cm dish and further treated with DMSO, ATR inhibitor, and/or PARP inhibitor for an additional 3 days. Cells were then washed with PBS and either fixed in 100% methanol for 15 minutes at 4° C. or fixed after additional 2 or 8 days of culture in drug-free media. Fixed plates were stained with 0.1% crystal violet solution overnight followed by a distilled water wash. Pictures were taken after the plates were dried. For quantitation of cell viability, total viable cells were counted using a hematocytometer after indicated treatment.
compound,measurement,setting,value
"CS(=O)(=O)c1ccc(-c2cnc(N)c(C(=O)Nc3ccccc3)n2)cc1 [ATRi, VE-821]",Cell cycle distribution (S-phase cells),U2OS cells [1],minor increase in the number of S-phase cells; also recorded: slight increase in S phase cells
same,DNA damage,U2OS cells [2],not detectable
same,mRNA levels of BRCA1 and RAD51,U2OS cells [3]; ATRi 5 μM 8 days or CHK1i 0.2 μM 5 days,reduction in the mRNA levels of BRCA1 and RAD51
same,mRNA levels of 53BP1,U2OS cells [3]; ATRi 5 μM 8 days,major changes in the mRNA levels of 53BP1 were not observed
same,Abundance of the other HR proteins monitored in CHX-treated cells,U2OS cells [4],did not change
same,Protein levels of BRCA1 in CHX-treated cells,U2OS cells [4],decreased
same,Abundance of BRCA1 (WB),hTERT RPE-1 cells,did not result in major changes in the abundance of BRCA1
same,Abundance of BRCA1 (WB),[5],severe reduction in the abundance of BRCA1
same,Recovery in drug-free media (crystal violet),U2OS cancer cells,recovered after switching to drug-free media
